# Tested on: 186277-243-T-J2-PDC complex spheroid viability
# Test: Anticancer human tumor 186277-243-T-J2-PDC patient-derived colon adenocarcinoma cell line growth inhibition [GQUAD]
# Details: for IC50: curve of first compound; for viability, T/C: stronger effect = lower value
# In short: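 Viability of tumor cells grown as complex spheroids with endothelial and stromal cells, exposed to drug combinations. Top concentration at or near clinical Cmax (else 10 microM), diluted in half-log increments.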
# [1] = second compound 0.0316 µM, first compound 0.0316 µM
# [2] = second compound 0.0316 µM, first compound 0.1 µM
# [3] = second compound 0.0316 µM, first compound 0.316 µM
# [4] = second compound 0.0316 µM, first compound 1 µM
# [5] = second compound 0.0316 µM, first compound 3.16 µM
# [6] = second compound 0.0316 µM, first compound 10 µM
# [7] = second compound 0.1 µM, first compound 0.0316 µM
# [8] = second compound 0.1 µM, first compound 0.1 µM
# [9] = second compound 0.1 µM, first compound 0.316 µM
# [10] = second compound 0.1 µM, first compound 1 µM
# [11] = second compound 0.1 µM, first compound 3.16 µM
# [12] = second compound 0.1 µM, first compound 10 µM
# [13] = second compound 0.316 µM, first compound 0.0316 µM
# [14] = second compound 0.316 µM, first compound 0.1 µM
# [15] = second compound 0.316 µM, first compound 0.316 µM
# [16] = second compound 0.316 µM, first compound 1 µM
# [17] = second compound 0.316 µM, first compound 3.16 µM
# [18] = second compound 0.316 µM, first compound 10 µM
# [19] = second compound 1 µM, first compound 0.0316 µM
# [20] = second compound 1 µM, first compound 0.1 µM
# [21] = second compound 1 µM, first compound 0.316 µM
# [22] = second compound 1 µM, first compound 1 µM
# [23] = second compound 1 µM, first compound 3.16 µM
# [24] = second compound 1 µM, first compound 10 µM
# [25] = second compound 3.16 µM, first compound 0.0316 µM
# [26] = second compound 3.16 µM, first compound 0.1 µM
# [27] = second compound 3.16 µM, first compound 0.316 µM
# [28] = second compound 3.16 µM, first compound 1 µM
# [29] = second compound 3.16 µM, first compound 3.16 µM
# [30] = second compound 3.16 µM, first compound 10 µM
# [31] = second compound 10 µM, first compound 0.0316 µM
# [32] = second compound 10 µM, first compound 0.1 µM
# [33] = second compound 10 µM, first compound 0.316 µM
# [34] = second compound 10 µM, first compound 1 µM
# [35] = second compound 10 µM, first compound 3.16 µM
# [36] = second compound 10 µM, first compound 10 µM
# 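Throughout, for viability, T/C: 100% = DMSO vehicle control viability.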
compound,measurement,setting,value
CC(C)n1c(=O)n(C)c2cnc3cc(F)c(-c4ccc(OCCCN5CCCCC5)nc4)cc3c21 + CN(C)c1ccc(Nc2c3ccc(NC(=O)CCN4CCCC4)cc3nc3cc(NC(=O)CCN4CCCC4)ccc23)cc1,IC50,second compound 0.0316 µM,> 10000 nM
same,IC50,second compound 0.1 µM,> 10000 nM
same,IC50,second compound 0.316 µM,> 10000 nM
same,IC50,second compound 1 µM,> 10000 nM
same,IC50,second compound 3.16 µM,> 10000 nM
same,IC50,second compound 10 µM,6100 nM
same,"viability, T/C",[1],94.4%
same,"viability, T/C",[2],108%
same,"viability, T/C",[3],91.8%
same,"viability, T/C",[4],98.1%
same,"viability, T/C",[5],109%
same,"viability, T/C",[6],97.9%
same,"viability, T/C",[7],110%
same,"viability, T/C",[8],105%
same,"viability, T/C",[9],102%
same,"viability, T/C",[10],110%
same,"viability, T/C",[11],114%
same,"viability, T/C",[12],95.3%
same,"viability, T/C",[13],97.9%
same,"viability, T/C",[14],115%
same,"viability, T/C",[15],103%
same,"viability, T/C",[16],98.3%
same,"viability, T/C",[17],122%
same,"viability, T/C",[18],93.7%
same,"viability, T/C",[19],132%
same,"viability, T/C",[20],87%
same,"viability, T/C",[21],97.6%
same,"viability, T/C",[22],100%
same,"viability, T/C",[23],111%
same,"viability, T/C",[24],86.1%
same,"viability, T/C",[25],101%
same,"viability, T/C",[26],84.9%
same,"viability, T/C",[27],97.2%
same,"viability, T/C",[28],118%
same,"viability, T/C",[29],119%
same,"viability, T/C",[30],84.8%
same,"viability, T/C",[31],118%
same,"viability, T/C",[32],96.8%
same,"viability, T/C",[33],112%
same,"viability, T/C",[34],88.8%
same,"viability, T/C",[35],66.4%
same,"viability, T/C",[36],37.8%
CC(=O)O[C@H]1C(=O)[C@@]2(C)[C@H]([C@H](OC(=O)c3ccccc3)[C@]3(O)C[C@H](OC(=O)[C@H](O)[C@@H](NC(=O)c4ccccc4)c4ccccc4)C(C)=C1C3(C)C)[C@]1(OC(C)=O)CO[C@@H]1C[C@@H]2O + CN(C)c1ccc(Nc2c3ccc(NC(=O)CCN4CCCC4)cc3nc3cc(NC(=O)CCN4CCCC4)ccc23)cc1,IC50,second compound 0.0316 µM,< 31.6 nM
same,IC50,second compound 0.1 µM,< 31.6 nM
same,IC50,second compound 0.316 µM,< 31.6 nM
same,IC50,second compound 1 µM,< 31.6 nM
same,IC50,second compound 3.16 µM,< 31.6 nM
same,IC50,second compound 10 µM,< 31.6 nM
same,"viability, T/C",[1],19.8%
same,"viability, T/C",[2],6.1%
same,"viability, T/C",[3],5.38%
same,"viability, T/C",[4],3.55%
same,"viability, T/C",[5],3.54%
same,"viability, T/C",[6],3.9%
same,"viability, T/C",[7],18.9%
same,"viability, T/C",[8],7.57%
same,"viability, T/C",[9],4.53%
same,"viability, T/C",[10],3.24%
same,"viability, T/C",[11],4.81%
same,"viability, T/C",[12],4.04%
same,"viability, T/C",[13],20.1%
same,"viability, T/C",[14],7.12%
same,"viability, T/C",[15],4.2%
same,"viability, T/C",[16],4.04%
same,"viability, T/C",[17],4.15%
same,"viability, T/C",[18],3.98%
same,"viability, T/C",[19],11.8%
same,"viability, T/C",[20],7.8%
same,"viability, T/C",[21],5.59%
same,"viability, T/C",[22],3.93%
same,"viability, T/C",[23],4.16%
same,"viability, T/C",[24],4.31%
same,"viability, T/C",[25],19.9%
same,"viability, T/C",[26],6.16%
same,"viability, T/C",[27],3.9%
same,"viability, T/C",[28],4.93%
same,"viability, T/C",[29],4.08%
same,"viability, T/C",[30],4.24%
same,"viability, T/C",[31],19.5%
same,"viability, T/C",[32],6.64%
same,"viability, T/C",[33],3.63%
same,"viability, T/C",[34],3.44%
same,"viability, T/C",[35],2.96%
same,"viability, T/C",[36],2.41%
Cc1[nH]c2ccccc2c1CCNCc1ccc(/C=C/C(=O)NO)cc1 + Cc1[nH]c2ccc(F)cc2c1-c1nc2c3cccnc3c3ncccc3c2[nH]1,IC50,second compound 0.0316 µM,41.3 nM
same,IC50,second compound 0.1 µM,44.2 nM
same,IC50,second compound 0.316 µM,47.1 nM
same,IC50,second compound 1 µM,41.8 nM
same,IC50,second compound 3.16 µM,40.4 nM
same,IC50,second compound 10 µM,47.5 nM
same,"viability, T/C","second compound 0.0316 µM, first compound 0.000999 µM",110%
same,"viability, T/C","second compound 0.0316 µM, first compound 0.00316 µM",108%
same,"viability, T/C","second compound 0.0316 µM, first compound 0.00999 µM",104%
same,"viability, T/C",[1],62.1%
same,"viability, T/C","second compound 0.0316 µM, first compound 0.0999 µM",9.83%
same,"viability, T/C",[3],0.44%
same,"viability, T/C","second compound 0.1 µM, first compound 0.000999 µM",115%
same,"viability, T/C","second compound 0.1 µM, first compound 0.00316 µM",105%
same,"viability, T/C","second compound 0.1 µM, first compound 0.00999 µM",90.7%
same,"viability, T/C",[7],69.8%
same,"viability, T/C","second compound 0.1 µM, first compound 0.0999 µM",10.4%
same,"viability, T/C",[9],0.56%
same,"viability, T/C","second compound 0.316 µM, first compound 0.000999 µM",93.3%
same,"viability, T/C","second compound 0.316 µM, first compound 0.00316 µM",101%
same,"viability, T/C","second compound 0.316 µM, first compound 0.00999 µM",97%
same,"viability, T/C",[13],71.2%
same,"viability, T/C","second compound 0.316 µM, first compound 0.0999 µM",9.88%
same,"viability, T/C",[15],1.7%
same,"viability, T/C","second compound 1 µM, first compound 0.000999 µM",90.5%
same,"viability, T/C","second compound 1 µM, first compound 0.00316 µM",107%
same,"viability, T/C","second compound 1 µM, first compound 0.00999 µM",104%
same,"viability, T/C",[19],62.8%
same,"viability, T/C","second compound 1 µM, first compound 0.0999 µM",9.69%
same,"viability, T/C",[21],0.96%
same,"viability, T/C","second compound 3.16 µM, first compound 0.000999 µM",101%
same,"viability, T/C","second compound 3.16 µM, first compound 0.00316 µM",111%
same,"viability, T/C","second compound 3.16 µM, first compound 0.00999 µM",100%
same,"viability, T/C",[25],61.1%
same,"viability, T/C","second compound 3.16 µM, first compound 0.0999 µM",9%
same,"viability, T/C",[27],0.47%
same,"viability, T/C","second compound 10 µM, first compound 0.000999 µM",95%
same,"viability, T/C","second compound 10 µM, first compound 0.00316 µM",98.5%
same,"viability, T/C","second compound 10 µM, first compound 0.00999 µM",99.9%
same,"viability, T/C",[31],71.1%
same,"viability, T/C","second compound 10 µM, first compound 0.0999 µM",11.2%
same,"viability, T/C",[33],1.07%
